Here are results for one compound from publication PMC5433351 (Metabolic engineering, 2016).

The structures appear in SMILES notation.

For this assay, the target named is HPCS, 3-hydroxypropionyl-CoA synthetase (HPCS/HPCD complex) (Metallosphaera sedula, UniProt A4YGR1). To be noted: ATP 3 mM, CoA 0.1 mM, MgCl2 20 mM, NADPH 0.5 mM, pH 6.5, 65°C.
Sequence of HPCS, 3-hydroxypropionyl-CoA synthetase (HPCS/HPCD complex) (A4YGR1 whole entry): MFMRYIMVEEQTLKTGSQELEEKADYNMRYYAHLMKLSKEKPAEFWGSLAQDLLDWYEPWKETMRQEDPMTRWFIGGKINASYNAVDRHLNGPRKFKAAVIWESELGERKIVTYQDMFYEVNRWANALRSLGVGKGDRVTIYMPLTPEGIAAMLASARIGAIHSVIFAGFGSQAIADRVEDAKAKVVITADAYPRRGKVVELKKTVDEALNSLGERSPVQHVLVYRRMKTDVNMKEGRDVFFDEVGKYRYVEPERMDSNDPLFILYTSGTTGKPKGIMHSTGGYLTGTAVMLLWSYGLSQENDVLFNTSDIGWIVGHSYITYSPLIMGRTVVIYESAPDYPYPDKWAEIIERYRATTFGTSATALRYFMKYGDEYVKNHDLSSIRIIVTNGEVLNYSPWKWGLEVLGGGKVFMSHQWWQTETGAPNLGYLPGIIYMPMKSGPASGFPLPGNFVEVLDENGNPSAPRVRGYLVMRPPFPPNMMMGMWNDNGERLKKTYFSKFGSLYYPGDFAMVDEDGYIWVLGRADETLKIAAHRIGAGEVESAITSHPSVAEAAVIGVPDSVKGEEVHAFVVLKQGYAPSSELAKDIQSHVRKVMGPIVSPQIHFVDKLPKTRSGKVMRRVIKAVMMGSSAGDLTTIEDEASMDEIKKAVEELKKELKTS
Sequence of HPCS, 3-hydroxypropionyl-CoA synthetase (HPCS/HPCD complex) (A4YI89 whole entry partner): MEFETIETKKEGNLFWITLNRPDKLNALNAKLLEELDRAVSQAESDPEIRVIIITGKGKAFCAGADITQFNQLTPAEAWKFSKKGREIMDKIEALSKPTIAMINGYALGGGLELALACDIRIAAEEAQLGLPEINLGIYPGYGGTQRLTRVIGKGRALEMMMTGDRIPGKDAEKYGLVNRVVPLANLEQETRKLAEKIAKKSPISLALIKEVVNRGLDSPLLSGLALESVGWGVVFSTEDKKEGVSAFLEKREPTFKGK

Regarding `O=C(O)CCO` [3-Hydroxypropionate], the “HPLC of propionyl-CoA formed with HPCS/HPCD and ACR” value is “Formation of propionyl-CoA from 3HP by HPCS, HDCD, and ACR”.
